Measurements as given in ChEMBL document CHEMBL5518215, “Unlocking Antibacterial Potential: Key-Site-Based Regulation of Antibacterial Spectrum of Peptides” (J Med Chem, 2024).

Experiments:
Enterococcus faecalis [1] = experiment: Antimicrobial activity against Enterococcus faecalis 29212 assessed as absence bacterial growth measured after 18 to 24 hrs incubation by NCCLS method; type: functional; conditions: time 18-24 hrs
[2] = Antimicrobial activity against Salmonella pullorum C7913 assessed as bacterial killing measured after 16 hrs incubation; type: functional, Salmonella enterica subsp. enterica serovar Pullorum; conditions: Salmonella enterica
Salmonella typhimurium [3] = experiment: Antimicrobial activity against Salmonella typhimurium C7731 assessed as absence bacterial growth measured after 18 to 24 hrs incubation by NCCLS method; type: functional, Salmonella enterica subsp. enterica serovar Typhimurium; conditions: Salmonella enterica, time 18-24 hrs
Escherichia coli [4] = experiment: Antimicrobial activity against Escherichia coli 25922 assessed as absence bacterial growth measured after 18 to 24 hrs incubation in presence of NH4Cl by NCCLS method; type: functional; conditions: time 18-24 hrs
Listeria monocytogenes [5] = experiment: Antimicrobial activity against Listeria monocytogenes 1.10753 assessed as absence bacterial growth measured after 18 to 24 hrs incubation by NCCLS method; type: functional; conditions: time 18-24 hrs
[6] = Cytotoxicity against mouse RAW264.7 cells assessed as cell survival rate measured after 8 hrs by MTT assay; type: toxicity, cell-based
Escherichia coli [7] = experiment: Antimicrobial activity against Escherichia coli 25922 assessed as absence bacterial growth measured after 18 to 24 hrs incubation by NCCLS method; type: functional; conditions: time 18-24 hrs
Escherichia coli [8] = experiment: Antimicrobial activity against Escherichia coli 25922 assessed as absence bacterial growth measured after 18 to 24 hrs incubation in presence of NaCl by NCCLS method; type: functional; conditions: time 18-24 hrs
[9] = test system: Staphylococcus epidermidis; experiment: Antimicrobial activity against Staphylococcus epidermidis 12228 assessed as absence bacterial growth measured after 18 to 24 hrs incubation by NCCLS method; type: functional; conditions: time 18-24 hrs
Escherichia coli [10] = experiment: Antimicrobial activity against Escherichia coli K88 assessed as absence bacterial growth measured after 18 to 24 hrs incubation by NCCLS method; type: functional; conditions: time 18-24 hrs
[11] = Antimicrobial activity against Salmonella pullorum C7913 assessed as absence bacterial growth measured after 18 to 24 hrs incubation by NCCLS method; type: functional, Salmonella enterica subsp. enterica serovar Pullorum; conditions: Salmonella enterica, time 18-24 hrs
Staphylococcus aureus [12] = experiment: Antimicrobial activity against Staphylococcus aureus 29213 assessed as absence bacterial growth measured after 18 to 24 hrs incubation by NCCLS method; type: functional; conditions: time 18-24 hrs
[13] = Hemolytic activity in human RBC at effective concentration at 128 uM measured after 1 hr by microplate reader relative to control; type: toxicity, cell-based, Erythrocyte; conditions: human red blood cells (erythrocytes), read-out: Activity
Escherichia coli [14] = experiment: Antimicrobial activity against Escherichia coli 25922 assessed as absence bacterial growth measured after 18 to 24 hrs incubation in presence of FeCl3 by NCCLS method; type: functional; conditions: time 18-24 hrs
Erythrocyte = experiment: Hemolytic activity in human RBC at effective concentration measured after 1 hr by microplate reader analysis; type: toxicity, cell-based
Salmonella typhimurium [15] = experiment: Antimicrobial activity against Salmonella typhimurium 14028 assessed as absence bacterial growth measured after 18 to 24 hrs incubation by NCCLS method; type: functional, Salmonella enterica subsp. enterica serovar Typhimurium; conditions: Salmonella enterica, time 18-24 hrs
Staphylococcus aureus [16] = experiment: Antimicrobial activity against Methicillin-resistant Staphylococcus aureus 43300 assessed as absence bacterial growth measured after 18 to 24 hrs incubation by NCCLS method; type: functional; conditions: time 18-24 hrs
Escherichia coli [17] = experiment: Antimicrobial activity against Escherichia coli 25922 assessed as absence bacterial growth measured after 18 to 24 hrs incubation in presence of ZnCl2 by NCCLS method; type: functional; conditions: time 18-24 hrs
Staphylococcus aureus [18] = experiment: Antimicrobial activity against Methicillin-resistant Staphylococcus aureus 43300 assessed as bacterial killing measured after 16 hrs incubation; type: functional
Staphylococcus aureus [19] = experiment: Antimicrobial activity against Staphylococcus aureus 29213 assessed as absence bacterial growth measured after 18 to 24 hrs incubation by NCCLS m; type: functional; conditions: time 18-24 hrs
Escherichia coli [20] = experiment: Antimicrobial activity against Escherichia coli 25922 assessed as absence bacterial growth measured after 18 to 24 hrs incubation in presence of KCl by NCCLS method; type: functional; conditions: time 18-24 hrs
Escherichia coli [21] = experiment: Antimicrobial activity against Escherichia coli 25922 assessed as absence bacterial growth measured after 18 to 24 hrs incubation in presence of 25% serum by NCCLS method; type: functional; conditions: time 18-24 hrs
Escherichia coli [22] = experiment: Antimicrobial activity against Escherichia coli 25922 assessed as bacterial killing measured after 16 hrs incubation; type: functional
[23] = Cytotoxicity against human HEK-293T cells assessed as cell survival rate measured after 8 hrs by MTT assay; type: toxicity, cell-based
Pseudomonas aeruginosa [24] = experiment: Antimicrobial activity against Pseudomonas aeruginosa 27853 assessed as bacterial killing measured after 16 hrs incubation; type: functional
Bacillus cereus [25] = experiment: Antimicrobial activity against Bacillus cereus 1.932 assessed as absence bacterial growth measured after 18 to 24 hrs incubation by NCCLS method; type: functional; conditions: time 18-24 hrs
Escherichia coli [26] = experiment: Antimicrobial activity against Escherichia coli 25922 assessed as absence bacterial growth measured after 18 to 24 hrs incubation in presence of MgCl2 by NCCLS method; type: functional; conditions: time 18-24 hrs
Acinetobacter baumannii [27] = experiment: Antimicrobial activity against Acinetobacter baumannii 1.6769 assessed as bacterial killing measured after 16 hrs incubation; type: functional
Bacillus cereus [28] = experiment: Antimicrobial activity against Bacillus cereus 1.932 assessed as bacterial killing measured after 16 hrs incubation; type: functional
[29] = test system: Staphylococcus epidermidis; experiment: Antimicrobial activity against Staphylococcus epidermidis 12228 assessed as bacterial killing measured after 16 hrs incubation; type: functional
Salmonella typhimurium [30] = experiment: Antimicrobial activity against Salmonella typhimurium C7731 assessed as bacterial killing measured after 16 hrs incubation; type: functional, Salmonella enterica subsp. enterica serovar Typhimurium; conditions: Salmonella enterica
[31] = Cytotoxicity against porcine IPEC-J2 cells assessed as cell survival rate measured after 8 hrs by MTT assay; type: toxicity, cell-based, Sus scrofa; conditions: pig
Escherichia coli [32] = experiment: Antimicrobial activity against Escherichia coli 25922 assessed as absence bacterial growth measured after 18 to 24 hrs incubation in presence of 12.5% serum by NCCLS method; type: functional; conditions: time 18-24 hrs
Acinetobacter baumannii [33] = experiment: Antimicrobial activity against Acinetobacter baumannii 1.6769 assessed as absence bacterial growth measured after 18 to 24 hrs incubation by NCCLS method; type: functional; conditions: time 18-24 hrs
Escherichia coli [34] = experiment: Antimicrobial activity against Escherichia coli K88 assessed as bacterial killing measured after 16 hrs incubation; type: functional
Enterococcus faecalis [35] = experiment: Antimicrobial activity against Enterococcus faecalis 29212 assessed as bacterial killing measured after 16 hrs incubation; type: functional
Salmonella typhimurium [36] = experiment: Antimicrobial activity against Salmonella typhimurium 14028 assessed as bacterial killing measured after 16 hrs incubation; type: functional, Salmonella enterica subsp. enterica serovar Typhimurium; conditions: Salmonella enterica
Pseudomonas aeruginosa [37] = experiment: Antimicrobial activity against Pseudomonas aeruginosa 27853 assessed as absence bacterial growth measured after 18 to 24 hrs incubation by NCCLS method; type: functional; conditions: time 18-24 hrs
Escherichia coli [38] = experiment: Antimicrobial activity against Escherichia coli 25922 assessed as absence bacterial growth measured after 18 to 24 hrs incubation in presence of 50% serum by NCCLS method; type: functional; conditions: time 18-24 hrs
Staphylococcus aureus [39] = experiment: Antimicrobial activity against Staphylococcus aureus 29213 assessed as bacterial killing measured after 16 hrs incubation; type: functional
Staphylococcus aureus [40] = experiment: Antimicrobial activity against Staphylococcus aureus 25923 assessed as bacterial killing measured after 16 hrs incubation; type: functional
Listeria monocytogenes [41] = experiment: Antimicrobial activity against Listeria monocytogenes 1.10753 assessed as bacterial killing measured after 16 hrs incubation; type: functional

H-WKLWLKGGKLWLKGGKLWLKG-NH2
32 µM: MBC (Salmonella typhimurium [30])
128 µM: HC10 (Erythrocyte)
2 µM: MBC [2]
8 µM: MIC (Escherichia coli [4]) | MIC (Staphylococcus aureus [16]) | MIC (Escherichia coli [20]) | MBC (Salmonella typhimurium [36]) | MIC (Pseudomonas aeruginosa [37]) | MBC (Staphylococcus aureus [39])
4 µM: MIC (Salmonella typhimurium [3]) | MIC (Escherichia coli [7]) | MIC (Escherichia coli [14]) | MIC (Salmonella typhimurium [15]) | MIC (Escherichia coli [17]) | MBC (Escherichia coli [22]) | MBC (Acinetobacter baumannii [27]) | MIC (Acinetobacter baumannii [33])
< 10%: hemolysis at 1 h, 128 µM [13]
> 64 µM: IC50 at 8 h [6] | IC50 at 8 h [23]
> 32 µM: MIC (Enterococcus faecalis [1]) | MIC (Listeria monocytogenes [5]) | MIC (Staphylococcus aureus [12]) | MBC (Staphylococcus aureus [18]) | MIC (Staphylococcus aureus [19]) | MIC (Escherichia coli [21]) | MIC (Bacillus cereus [25]) | MIC (Escherichia coli [26]) | MBC (Bacillus cereus [28]) | MBC [29] | MIC (Escherichia coli [32]) | MBC (Enterococcus faecalis [35]) | MIC (Escherichia coli [38]) | MBC (Staphylococcus aureus [40]) | MBC (Listeria monocytogenes [41])
16 µM: MIC (Escherichia coli [8]) | MIC [9] | MBC (Pseudomonas aeruginosa [24])
1 µM: MIC (Escherichia coli [10]) | MIC [11] | MBC (Escherichia coli [34])
12.9 µM: IC50 at 8 h [31]
